Assay results published in patent US12252484B2, “Pyrazolopyridine compounds for the treatment of autoimmune disease” (Hoffmann-La Roche Inc., priority 2018, dated 2025).
pIC50: −log10 of the molar value. Read-outs that look alike come from different tables or passages of the source.

Target: T1, human TLR9 (Homo sapiens, UniProt Q9NR96)
T1 sequence (Q9NR96 26-1032): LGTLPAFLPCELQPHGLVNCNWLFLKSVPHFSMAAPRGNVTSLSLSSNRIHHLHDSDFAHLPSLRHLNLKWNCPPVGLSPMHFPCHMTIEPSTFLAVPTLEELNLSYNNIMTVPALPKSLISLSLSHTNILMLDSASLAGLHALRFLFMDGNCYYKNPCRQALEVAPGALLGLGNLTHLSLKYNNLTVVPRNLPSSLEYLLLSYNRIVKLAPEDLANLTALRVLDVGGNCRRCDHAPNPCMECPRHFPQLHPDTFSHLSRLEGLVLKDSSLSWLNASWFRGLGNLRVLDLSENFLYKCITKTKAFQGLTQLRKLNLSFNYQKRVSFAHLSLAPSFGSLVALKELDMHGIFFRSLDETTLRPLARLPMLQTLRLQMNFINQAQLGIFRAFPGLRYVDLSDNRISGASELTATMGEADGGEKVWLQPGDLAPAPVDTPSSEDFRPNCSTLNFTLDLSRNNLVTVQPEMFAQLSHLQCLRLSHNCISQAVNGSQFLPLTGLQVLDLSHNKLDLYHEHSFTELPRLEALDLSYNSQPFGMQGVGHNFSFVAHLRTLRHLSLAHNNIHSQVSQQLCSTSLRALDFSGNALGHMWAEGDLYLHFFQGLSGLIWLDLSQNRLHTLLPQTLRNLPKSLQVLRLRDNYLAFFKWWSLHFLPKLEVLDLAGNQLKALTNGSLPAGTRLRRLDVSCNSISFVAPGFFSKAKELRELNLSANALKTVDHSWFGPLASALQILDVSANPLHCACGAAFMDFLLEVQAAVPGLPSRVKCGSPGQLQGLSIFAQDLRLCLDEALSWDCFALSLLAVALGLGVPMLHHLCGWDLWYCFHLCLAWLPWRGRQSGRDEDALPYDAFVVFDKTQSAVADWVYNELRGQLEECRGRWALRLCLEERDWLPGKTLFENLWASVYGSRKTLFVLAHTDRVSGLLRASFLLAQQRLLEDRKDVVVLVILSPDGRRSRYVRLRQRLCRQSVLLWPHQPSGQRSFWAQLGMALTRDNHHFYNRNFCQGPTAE
Experiment: HEK293-Blue-hTLR-9 cells assay (SEAP reporter, ODN2006 stimulation)
Format: cell-based
Method: The following tests were carried out in order to determine the activity of the compounds of formula (I) in HEK293-Blue-hTLR-7/8/9 cells assay.
HEK293-Blue-hTLR-9 Cells Assay:
A stable HEK293-Blue-hTLR-9 cell line was purchased from InvivoGen (Cat. #: hkb-htlr9, San Diego, California, USA). These cells were originally designed for studying the stimulation of human TLR9 by monitoring the activation of NF-κB. A SEAP (secreted embryonic alkaline phosphatase) reporter gene was placed under the control of the IFN-β minimal promoter fused to five NF-κB and AP-1-binding sites. The SEAP was induced by activating NF-κB and AP-1 via stimulating HEK-Blue hTLR9 cells with TLR9 ligands. Therefore the reporter expression was declined by TLR9 antagonist under the stimulation of a ligand, such as ODN2006 (Cat. #: tlrl-2006-1, Invivogen, San Diego, California, USA), for incubation of 20 hrs. The cell culture supernatant SEAP reporter activity was determined using QUANTI-Blue™ kit (Cat. #: rep-qb1, Invivogen, San Diego, California, USA) at a wavelength of 640 nm, a detection medium that turns purple or blue in the presence of alkaline phosphatase.
HEK293-Blue-hTLR9 cells were incubated at a density of 250,000˜450,000 cells/mL in a volume of 170 μL in a 96-well plate in Dulbecco's Modified Eagle's medium (DMEM) containing 4.5 g/L glucose, 50 U/mL penicillin, […], 2 mM L-glutamine, 10% (v/v) heat-inactivated fetal bovine serum with addition of 20 μL test compound in a serial dilution in the presence of final DMSO at 1% and 10 μL of 20 uM ODN2006 in above DMEM, perform incubation under 37° C. in a CO2 incubator for 20 hrs. Then 20 μL of the supernatant from each well was incubated with 180 μL Quanti-blue substrate solution at 37° C. for 2 hrs and the absorbance was read at 620˜655 nm using a spectrophotometer. The signalling pathway that TLR9 activation leads to downstream NF-κB activation has been widely accepted, and therefore similar reporter assay was modified for evaluating TLR9 antagonist.

[1] = HEK293-Blue-hTLR-9 cells, ODN2006 ligand, 20 hrs incubation, read-out: TLR9 IC50

Row | SMILES | pIC50 [1] | pIC50
1 | C[C@@H]1CN(c2ccc(C#N)n3nccc23)C[C@H](C(=O)N2CCC3(CCNCC3)CC2)O1 [Example 28, 4-[(2R,6R)-2-(3,9-diazaspiro[5.5]undecane-3-carbonyl)-6-methyl-morpholin-4-yl]pyrazolo[1,5a]pyridine-7-carbonitrile] | 5.77 | –
2 | C[C@@H]1CN(c2ccc(C#N)n3nccc23)C[C@H](C(=O)NC2C3CCC2CNC3)O1 (stereo partly drawn) [Example 26, (2R,6R)-N-(3-azabicyclo[3.2.1]octan-8-yl)-4-(7-cyanopyrazolo[1,5-a]pyridin-4-yl)-6-methyl-morpholine-2-carboxamide] | 4.89 | –
3 | C[C@@H]1CN(c2ccc(C#N)n3nccc23)C[C@H](C(=O)NC2CC3(CNC3)C2)O1 [Example 3, (2R,6R)-N-(2-azaspiro[3.3]heptan-6-yl)-4-(7-cyanopyrazolo[1,5-a]pyridin-4-yl)-6-methyl-morpholine-2-carboxamide] | 4.44 | –
4 | C[C@@H]1CN(c2ccc(C#N)n3nccc23)C[C@H](C(=O)N[C@H]2CC[C@@H](O)CC2)O1 [Example 20, Cis-(2R,6R)-4-(7-cyanopyrazolo[1,5-a]pyridin-4-yl)-N-(4-hydroxycyclohexyl)-6-methyl-morpholine-2-carboxamide] | 4.15 | –
5 | C[C@@H]1CN(c2ccc(C#N)n3nccc23)C[C@H](C(=O)NC2CC3COCC(C2)N3)O1 (stereo partly drawn) [Example 22, Endo-(2R,6R)-4-(7-cyanopyrazolo[1,5-a]pyridin-4-yl)-6-methyl-N-[3-oxa-9-azabicyclo[3.3.1]nonan-7-yl]morpholine-2-carboxamide] | 4.74 | –
6 | C[C@@H]1CN(c2ccc(C#N)n3nccc23)C[C@H](C(=O)NC2CC3CCCC(C2)N3)O1 (stereo partly drawn) [Example 14, (2R,6R)-N-(9-azabicyclo[3.3.1]nonan-3-yl)-4-(7-cyanopyrazolo[1,5-a]pyridin-4-yl)-6-methyl-morpholine-2-carboxamide] | 5.80 | –
7 | C[C@@H]1CN(c2ccc(C#N)n3nccc23)C[C@H](C(=O)NC2CC3CCCC(C2)N3C)O1 (stereo partly drawn) [Example 35, (2R,6R)-4-(7-cyanopyrazolo[1,5-a]pyridin-4-yl)-6-methyl-N-(9-methyl-9-azabicyclo[3.3.1]nonan-3-yl)morpholine-2-carboxamide] | – | 4.96
8 | C[C@@H]1CN(c2ccc(C#N)n3nccc23)C[C@H](C(=O)NC23CC4CC(CC(C4)C2)C3)O1 [Example 12, (2R,6R)-N-(1-adamantyl)-4-(7-cyanopyrazolo[1,5-a]pyridin-4-yl)-6-methyl-morpholine-2-carboxamide] | 4.38 | –
9 | C[C@@H]1CN(c2ccc(C#N)n3nccc23)C[C@H](C(=O)NC2C3CNC[C@@H]32)O1 (stereo partly drawn) [Example 31, Trans-(2R,6R)-N-(3-azabicyclo[3.1.0]hexan-6-yl)-4-(7-cyanopyrazolo[1,5-a]pyridin-4-yl)-6-methyl-morpholine-2-carboxamide] | 5.96 | –
10 | C[C@@H]1CN(c2ccc(C#N)n3ncc(F)c23)C[C@H](C(=O)NC2CCN(C)CC2)O1 [Example 47, (2R,6R)-4-(7-cyano-3-fluoro-pyrazolo[1,5-a]pyridin-4-yl)-6-methyl-N-(1-methyl-4-piperidyl)morpholine-2-carboxamide] | 4.85 | –
11 | C[C@@H]1CN(c2ccc(C#N)n3nccc23)C[C@H](C(=O)NC2CCN(C)CC2)O1 [Example 1, (2R,6R)-4-(7-cyanopyrazolo[1,5-a]pyridin-4-yl)-6-methyl-N-(1-methyl-4-piperidyl)morpholine-2-carboxamide] | 4.82 | –
12 | C[C@@H]1CN(c2ccc(C#N)n3nccc23)C[C@H](C(=O)N[C@H]2CC[C@H](O)CC2)O1 [Example 21, Trans-(2R,6R)-4-(7-cyanopyrazolo[1,5-a]pyridin-4-yl)-N-(4-hydroxycyclohexyl)-6-methyl-morpholine-2-carboxamide] | < 4.00 | –
13 | C[C@@H]1CN(c2ccc(C#N)n3nccc23)C[C@H](C(=O)NC2(C)CCNCC2)O1 [Example 19, (2R,6R)-4-(7-cyanopyrazolo[1,5-a]pyridin-4-yl)-6-methyl-N-(4-methyl-4-piperidyl)morpholine-2-carboxamide] | 4.80 | –
14 | C[C@@H]1CN(c2ccc(C#N)n3nccc23)C[C@H](C(=O)NC2C3CNCC2COC3)O1 (stereo partly drawn) [Example 27, (2R,6R)-4-(7-cyanopyrazolo[1,5-a]pyridin-4-yl)-6-methyl-N-(3-oxa-7-azabicyclo[3.3.1]nonan-9-yl)morpholine-2-carboxamide] | 5.17 | –

Continued, in another order:

Row | pIC50 [1] | SMILES | pIC50
15 | < 4.00 | COCCNC(=O)[C@H]1CN(c2ccc(C#N)n3nccc23)C[C@@H](C)O1 [Example 9, (2R,6R)-4-(7-cyanopyrazolo[1,5-a]pyridin-4-yl)-N-(2-methoxyethyl)-6-methyl-morpholine-2-carboxamide] | –
16 | < 4.00 | C[C@@H]1CN(c2ccc(C#N)n3nccc23)C[C@H](C(=O)NC(C)(C)CO)O1 [Example 16, (2R,6R)-4-(7-cyanopyrazolo[1,5-a]pyridin-4-yl)-N-(2-hydroxy-1,1-dimethyl-ethyl)-6-methyl-morpholine-2-carboxamide] | –
17 | 4.96 | C[C@@H]1CN(c2ccc(C#N)n3nccc23)C[C@H](C(=O)NC(C)(C)CN)O1 [Example 41, (2R,6R)-N-(2-amino-1,1-dimethyl-ethyl)-4-(7-cyanopyrazolo[1,5-a]pyridin-4-yl)-6-methyl-morpholine-2-carboxamide] | –
18 | 4.48 | CCC(C)(C)NC(=O)[C@H]1CN(c2ccc(C#N)n3nccc23)C[C@@H](C)O1 [Example 17, (2R,6R)-4-(7-cyanopyrazolo[1,5-a]pyridin-4-yl)-N-(1,1-dimethylpropyl)-6-methyl-morpholine-2-carboxamide] | –
19 | 4.11 | C[C@@H]1CN(c2ccc(C#N)n3nccc23)C[C@H](C(=O)NC2CNC[C@H]2F)O1 (stereo partly drawn) [Example 5, Cis-(2R,6R)-4-(7-cyanopyrazolo[1,5-a]pyridin-4-yl)-6-methyl-N-(4-fluoropyrrolidin-3-yl) morpholine-2-carboxamide] | –
20 | < 4.00 | C[C@@H]1CN(c2ccc(C#N)n3nccc23)C[C@H](C(=O)N[C@H]2CNC[C@H]2F)O1 [Example 2, (2R,6R)-4-(7-cyanopyrazolo[1,5-a]pyridin-4-yl)-N-[(3S,4R)-4-fluoropyrrolidin-3-yl]-6-methyl-morpholine-2-carboxamide] | –
21 | 4.60 | C[C@@H]1CN(c2ccc(C#N)n3nccc23)C[C@H](C(=O)NC2CCNC2)O1 (stereo partly drawn) [Example 25, (2R,6R)-4-(7-cyanopyrazolo[1,5-a]pyridin-4-yl)-6-methyl-N-pyrrolidin-3-yl-morpholine-2-carboxamide] | –
22 | 4.72 | C[C@@H]1CN(c2ccc(C#N)n3nccc23)C[C@H](C(=O)NCC(C)(C)CN)O1 [Example 39, (2R,6R)-N-(3-amino-2,2-dimethyl-propyl)-4-(7-cyanopyrazolo[1,5-a]pyridin-4-yl)-6-methyl-morpholine-2-carboxamide] | –
23 | < 4.00 | C[C@@H]1CN(c2ccc(C#N)n3nccc23)C[C@H](C(=O)NCC2CNCC2(F)F)O1 (stereo partly drawn) [Example 18, (2R,6R)-4-(7-cyanopyrazolo[1,5-a]pyridin-4-yl)-N-[(4,4-difluoropyrrolidin-3-yl)methyl]-6-methyl-morpholine-2-carboxamide] | –
